Here are results for 3 compounds from patent EP0437790B1, “Antithrombotic compounds” (MERRELL DOW PHARMACEUTICALS INC., priority 1989, dated 1991).

The target of assay [1] is T1, 5HT₂ receptor (Rattus norvegicus, UniProt P14842).
T1 construct: from tissue; host or cells: Brain membranes (rat frontal cortex)
The experiment in a line: [³H] spiroperidol binding test. The note with it: decrease in binding of [³H] spiroperidol to 5HT₂ receptors; read-out: IC₅₀. The text has this:
As noted above, the compounds are also serotonin 5HT₂ antagonists. […] In this test, 5HT₂ receptors are exposed to both [³H] spiroperidol, (a substance known to have a specific affinity for the receptor) and the test compound. The extent to which there is a decrease in binding of the [³H] spiroperidol to the receptor is indicative of the affinity of the test compound for the 5HT₂ receptor.
1-(4-Fluorophenyl)-2-[4-[(4-methanesulfonamidophenyl)carbonyl]-1-piperidinyl]-ethanone (Compound #1) and 1-(4-fluorophenyl)-2-[4-[(4-acetamidophenyl)carbonyl]-1-piperidinyl]-ethanone (Compound #2) were tested in this procedure. For comparative purposes, 1-(3-pyridyl)-2-[4-[(4-methanesulfonamidophenyl)carbonyl]-1-piperidinyl]-ethanone (Compound #3) was also tested.

Another assay deals with canine. Put plainly: canine model of cyclic coronary blood flow reduction (Folts). Type of assay: in vivo. The note with it: Canis lupus familiaris, iv, cyclic flow reduction of the left anterior descending coronary artery, read-out: DOSAGE TO PREVENT CFR. The text has this:
This procedure is well known in the art and has been described by John D. Folts, Edward B. Crowell Jr. and George G. Rowe, Circulation Vol 54, pages 365-370 (1976).
In Folts's model, the left anterior descending coronary artery of a canine is surgically isolated and the endothelial lining of this artery is purposefully damaged by squeezing the vessel in order to insure that the platelets will have the opportunity to come in contact with the collagen underlying the endothelial lining. This initiates the process of thrombus formation which was described above. An electronic flow probe is then placed on the artery so that blood flow through this vessel can be measured. A constrictor is then placed around the artery to produce a critical stenosis. The stenosis is said to be critical because the degree of stenosis is adjusted to abolish the hyperemic response following a 15 second occlusion of the artery. Shortly after producing the critical stenosis, blood flow through this segment of coronary artery will slowly decrease to near zero followed by a sudden return to control levels. The slow decrease in blood flow is caused by the formation of a platelet thrombus which occludes the artery. The sudden return of blood flow is due to dislodgement of the thrombus and/or its resulting conversion into an emboli.
This model can be utilized to test compounds for the ability to inhibit platelet aggregation and therefore prevent the formation of thrombi.
1-(4-Fluorophenyl)-2-[4-[(4-methanesulfonamidophenyl)carbonyl]-1-piperidinyl]-ethanone (Compound #1) and 1-(4-fluorophenyl)-2-[4-[(4-acetamidophenyl)carbonyl]-1-piperidinyl]-ethanone (Compound #2) were tested in this model. For comparative purposes, 1-(3-pyridyl)-2-[4-[(4-methanesulfonamidophenyl)carbonyl]-1-piperidinyl]-ethanone (Compound #3) was also tested in this model. This compound was prepared and described in Example 35 of European Patent Application 0 235 752, supra.

The subject of assay [2] is 5HT₂ receptor. The experiment in a line: 5-DMT head twitch test. It is filed as in vivo. The note with it: ip; mice; head twitch induced by 5-methoxy-N,N-dimethyltryptamine. As to the method:
Psychopharmacol., Vol. 3, pages 89-92, (1979). The administration of 5-methoxy-N,N-dimethyltryptamine (DMT) to mice typically produces a characteristic head twitch in the mice. In this test, the mice are administered 5-DMT and a test compound. An absence of head twitches in the mice is considered to be predictive of the ability of the test compound to antagonize the 5HT₂ receptor in vivo.

T1 sequence (P14842 whole entry): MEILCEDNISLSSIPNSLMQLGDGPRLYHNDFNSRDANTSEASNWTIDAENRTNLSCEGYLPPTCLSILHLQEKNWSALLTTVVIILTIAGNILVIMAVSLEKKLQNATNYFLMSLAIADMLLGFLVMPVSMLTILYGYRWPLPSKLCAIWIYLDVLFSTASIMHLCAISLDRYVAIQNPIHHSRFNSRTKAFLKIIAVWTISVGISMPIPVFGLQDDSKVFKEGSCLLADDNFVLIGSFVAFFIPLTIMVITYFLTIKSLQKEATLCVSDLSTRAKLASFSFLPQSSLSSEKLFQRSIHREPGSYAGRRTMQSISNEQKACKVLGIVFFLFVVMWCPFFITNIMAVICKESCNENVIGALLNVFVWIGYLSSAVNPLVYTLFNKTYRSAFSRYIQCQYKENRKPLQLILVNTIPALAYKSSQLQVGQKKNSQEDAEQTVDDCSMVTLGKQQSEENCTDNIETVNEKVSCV

`CC(=O)Nc1ccc(C(=O)C2CCN(CC(=O)c3ccc(F)cc3)CC2)cc1` [Compound #2, 1-(4-fluorophenyl)-2-[4-[(4-acetamidophenyl)carbonyl]-1-piperidinyl]-ethanone]: the IC50 at 5HT₂ receptor [1] turned out to be 0.02 µM. Besides, the minimal effective dose in the assay with canine was determined as 0.001 mg/kg. Also, in the assay with 5HT₂ receptor [2], the “ED₅₀ FOR ABOLITION OF HEAD TWITCH” value came to 0.051 mg/kg.
Taken in the same sequence, the figures for `CS(=O)(=O)Nc1ccc(C(=O)C2CCN(CC(=O)c3ccc(F)cc3)CC2)cc1` [Compound #1, 1-(4-Fluorophenyl)-2-[4-[(4-methanesulfonamidophenyl)carbonyl]-1-piperidinyl]-ethanone] were 0.078 µM, 0.001 mg/kg and 0.034 mg/kg.
In the same order, the values of `CS(=O)(=O)Nc1ccc(C(=O)C2CCN(CC(=O)c3cccnc3)CC2)cc1` [Compound #3, 1-(3-pyridyl)-2-[4-[(4-methanesulfonamidophenyl)carbonyl]-1-piperidinyl]-ethanone, reference compound] are more than 5 µM, more than 0.1 mg/kg and more than 200 mg/kg.
